Experimental data reported in patent publication US20100221763A1, “Specific Acceptors for Transferases to Saccharides and Method for Obtaining and Using Same” (Health Research, Inc, priority 2005, published 2010).

Assays:
[1] = tested on: β-GlcNAc:β1,4GalNAc-T of breast tumor BC9400; assay: β-GlcNAc:β1,4GalNAc-T assay, breast tumor extract; assay type: biochemical, human; settings: for b) β-GlcNAc:β1,4GalNAc-T activity: incorporation of radioactive sugar: other acceptors, 1 mg protein of the tissue extract
Description: (§1) Colon tumor tissue (CC9338) and breast tumor tissue (BC9400) were obtained during surgical procedures at Roswell Park Cancer Institute and stored frozen within 1 h at −70° C. The tissues were homogenized at 4° C. with 4 volumes of 0.1M Tris Maleate […] 0.1% NaN3 using kinematica. After adjusting the concentration of Triton X-100 to 2%, these homogenates were mixed in the cold room for 1 h using Speci-Mix (Thermolyne) and then centrifuged at 20,000 g for 1 h at 4° C. The clear fat-free supernatant was stored frozen at −20° C. until use. Aliquots of 10 μL from this extract were used in assays run in duplicates. Glycosyltransferase activity in cell lysate was determined by mixing the lysates with acceptor and radiolabeled donor (monosaccharide) under the reaction conditions detailed below, followed by separation of un-reacted donor from the radioactive product using anionic or hydrophobic chromatography. In all cases, the radioactive content of isolated products was determined by using 3a70 scintillation cocktail (Research Products International, Mount Prospect, Ill.) and a Beckman LS6500 scintillation counter. Controls for each assay contained the reaction mixture with everything except the acceptor. All assays were run in duplicate.
(§2) The acceptors used for measuring the glycosyltransferase and sulfotransferase activities are given in Table I. The following are the conditions for individual enzymatic assays. Reaction temperature in all cases was 37° C. α2,3- and α2,6 sialytransferase (ST) assay reactions proceeded for 2 h in a mixture containing 100 mM sodium cacodylate buffer (pH 6.0), 7.5 mM acceptor, CMP-[9-^3H]NeuAc (typically 0.2 μCi) and 10 μl cell extract in a total volume of 20 μl [Chandrasekaran et al., 1995]. βGlcNAc:β1,4Gal-T and αGalNAc:β1,3Gal-T assay mixtures in duplicate contained 0.1M Hepes-NaOH pH 7.0, 7 mM ATP, 20 mM Mn acetate, 1 mM UDP-Gal, UDP [^14C]Gal (0.05 μCi; 327mCi/mmol; Amersham), 0.5 mM acceptor (unless otherwise stated) and the enzyme in a total volume of 20 μL. It was incubated for 4 h [Chandrasekaran et al., 2001]. βGlcNAc:β1,4GalNAc-T assay mixtures in duplicate contained 0.1M Hepes-NaOH pH 7.0, 7 mM ATP, 20 mM Mn acetate. UDP [^3H] GalNAc (0.20 μCi; 7.8 Ci/mmol: New England Nuclear Corp.) 7.5 mM acceptor (unless otherwise stated) and the enzyme in a total volume of 20 μL and incubated for 4 h [Chandrasekaran et al., 2001].
(§3) Dowex-1-C1 or Sep-Pak C18 cartridges were used to isolate radiolabeled product from the reaction mixture. For GalT, GalNAc-T and FT assays, the incubation mixture was diluted with 1 ml water and passed through a 1 ml Dowex-1-C1 column [Chandrasekaran et al., 1996; Chandrasekaran et al., 2001]. The column was washed twice with 1 ml of water. The breakthrough and the water wash contained the [^14C]-galactosylated or [^14C]-fucosylated products formed with neutral acceptors. 3 ml of 0.1M NaCl was used to obtain [^14C]-fucosylated products from sialylated acceptors after water elution. For sialytransferase assays, the radioactive products from benzylglycosides were separated by hydrophobic chromatography on Sep-Pak C18 cartridge (Waters, Milford, Mass.), and elution of the product was done with 3 ml methanol [Palcic et al., 1988]. For sulfotransferase assays, elution of the [^35S]-sulfated compound from Dowex-1-C1 column was achieved by 3 ml of 0.2M NaCl [Chandrasekaran et al., 2004].

[2] = tested on: β-GlcNAc:β1,4Gal-T of breast tumor BC9400; assay: β-GlcNAc:β1,4Gal-T assay, breast tumor extract; assay type: biochemical, human; settings: for a) β-GlcNAc:β1,4Gal-T activity: incorporation of radioactive sugar: other acceptors, 1 mg protein of the tissue extract
Description: as §1, §2, §3

[3] = tested on: β-GlcNAc:β1,4Gal-T of colon tumor CC9338; assay: β-GlcNAc:β1,4Gal-T assay, colon tumor extract; assay type: biochemical, human; settings: for a) β-GlcNAc:β1,4Gal-T activity: incorporation of radioactive sugar: other acceptors, 1 mg protein of the tissue extract
Description: as §1, §2, §3

[4] = tested on: β-GlcNAc:β1,4GalNAc-T of colon tumor CC9338; assay: β-GlcNAc:β1,4GalNAc-T assay, colon tumor extract; assay type: biochemical, human; settings: for b) β-GlcNAc:β1,4GalNAc-T activity: incorporation of radioactive sugar: other acceptors, 1 mg protein of the tissue extract
Description: as §1, §2, §3

human FTVII = biological target: T1, human FTVII (Homo sapiens, UniProt Q11130); assay: [14C]Fuc transfer by FTVII from extracts of transfected COS-7 cells; assay type: biochemical; settings: extracts of COS-7 cells transfected with FTVII cDNA; unpublished results
T1 construct: expressed in transfected cells; host or cells: COS-7
T1 sequence (Q11130 whole entry): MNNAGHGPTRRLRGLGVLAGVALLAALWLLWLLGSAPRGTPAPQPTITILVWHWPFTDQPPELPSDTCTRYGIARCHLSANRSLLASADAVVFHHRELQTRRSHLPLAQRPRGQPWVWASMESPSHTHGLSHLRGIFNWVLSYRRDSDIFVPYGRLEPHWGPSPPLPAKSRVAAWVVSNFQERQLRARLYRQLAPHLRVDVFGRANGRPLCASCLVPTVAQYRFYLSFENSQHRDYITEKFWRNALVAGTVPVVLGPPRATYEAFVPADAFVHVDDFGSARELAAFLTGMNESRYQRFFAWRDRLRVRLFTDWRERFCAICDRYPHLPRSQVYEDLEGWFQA
From the text: The sialylation steps in this reaction scheme were validated by analyzing reaction products using mass spectroscopy (Table VI).

Siglec 4 (MAG) = settings: Blixt et al. (49); cited from earlier work
[5] = relative to Gal-T activity with the same acceptor
[6] = Gal-T activity with the same acceptor = 100.0%

transfer of [14C]Fuc to the acceptor (human FTVII) | Structure (SMILES) | b) β-GlcNAc:β1,4GalNAc-T activity: incorporation of radioactive sugar [1] [CPM × 10^−3] | a) β-GlcNAc:β1,4Gal-T activity: incorporation of radioactive sugar [2] [CPM × 10^−3] | a) β-GlcNAc:β1,4Gal-T activity: incorporation of radioactive sugar [3] [CPM × 10^−3] | b) β-GlcNAc:β1,4GalNAc-T activity: incorporation of radioactive sugar [4] [CPM × 10^−3] | fold more potent than NeuAcα2,6GalNAcα-O-Thr in inhibiting Siglec 4 (MAG) binding (Siglec 4 (MAG)) [fold] | b) β-GlcNAc:β1,4GalNAc-T activity, percent in parentheses [1, 5] [%] | a) β-GlcNAc:β1,4Gal-T activity, percent in parentheses [2, 6] [%] | a) β-GlcNAc:β1,4Gal-T activity, percent in parentheses [3, 6] [%] | b) β-GlcNAc:β1,4GalNAc-T activity, percent in parentheses [4, 5] [%]
 | CO[C@@H]1O[C@H](CO)[C@H](O)[C@H](O[C@@H]2O[C@H](CO)[C@@H](O)[C@H](O)[C@H]2NC(C)=O)[C@H]1O [GlcNAcβ1,3Galβ-O-Me] | 60.9 | 338.5 | 247.9 | 20.9 |  |  |  |  | 
efficiently transferring | CO[C@@H]1O[C@H](COS(=O)(=O)O)[C@@H](O[C@@H]2O[C@H](CO)[C@H](O)[C@H](O[C@@H]3O[C@H](COS(=O)(=O)O)[C@@H](O[C@@H]4O[C@H](CO)[C@H](O)[C@H](O[C@]5(C(=O)O)C[C@H](O)[C@@H](NC(C)=O)[C@H]([C@H](O)[C@H](O)CO)O5)[C@H]4O)[C@H](O)[C@H]3NC(C)=O)[C@H]2O)[C@H](O)[C@H]1NC(C)=O [NeuAcα2,3Galβ1,4(6-O-Sulfo)GlcNAcβ1,3Galβ1,4(6-O-Sulfo)GlcNAcβ-O-Me] |  |  |  |  |  |  |  |  | 
 | CC(=O)NC1C(O)CC(OCC2OC(OC(C)C(N)C(=O)O)C(NC(C)=O)C(OC3OC(CO)C(O)C(O)C3O)C2O)(C(=O)O)OC1C(O)C(O)CO (stereo not drawn) [NeuAcα2,6(Galβ1,3)GalNAcα-O-Thr] |  |  |  |  | 100 |  |  |  | 
 | C=CCO[C@H]1O[C@H](CO[C@@H]2O[C@H](CO)[C@@H](O)[C@H](O)[C@H]2NC(C)=O)[C@@H](O)[C@H](O)[C@@H]1O [GlcNAcβ1,6Manα-O—Al] | 99.2 | 443.6 | 493.4 | 54.5 |  | 22.4 | 100.0 | 100.0 | 11.0
 | C=CCO[C@@H]1O[C@H](CO[C@@H]2O[C@H](CO)[C@@H](O)[C@H](O)[C@@H]2O[C@@H]2O[C@H](CO)[C@@H](O)[C@H](O)[C@H]2NC(C)=O)[C@@H](O)[C@H](O)[C@H]1O [GlcNAcβ1,2Manβ1,6Glcβ-O—Al] | 57.9 | 70.5 | 277.7 | 25.6 |  |  |  |  | 
